Reference: US11534412B2, “Application of totarol and pharmaceutical composition containing totarol” (Emergopharm SP. Z O.O. SP.K., priority 2017, dated 2022)

Experiments:
[1] = tested on: human vaginal epithelial cells of the A-431 cell line; format: cell-based
Description: Test of totarol impact on the human vaginal epithelial cells of the A-431 cell line (ATCC® The study was carried out using the following test: Annexin-V-Fluos (Roche, Mannheim, Germany), during incubation for 2, 8 and 24 hours, under in vitro conditions, according to the instructions of the test's manufacturer. The totarol sample was prepared by dissolution of 3 mg of totarol in 3 ml of 100% DMI.
The cultivation time for the A-431 cell line was 20 days. The culture was carried out at a temperature of 37° C. in an atmosphere containing 10% CO2, on a DMEM culture medium (Institute of Immunology and Experimental Therapy PAS [IITD PAN], Wroclaw), with an addition of 10% of foetal bovine serum (FBS, Sigma-Aldrich). The culture fluid were being replaced regularly every 48 hours. After achieving a decantable growth or the so-called “monolayer”, the cells were passaged using (for approx. 10 min) 0.25% trypsin (Sigma-Aldrich). Then, the obtained tissue line was passed to 24-well plates (TPP), adjusting their densities to the value of 5×10^5 per well. The tissue culture of the studied lines was carried out for 3 next days on the surface of sterile microscope slides placed on the bottom of a 24-well plate, until a decantable growth was obtained on the surface of the microscope slides. After obtaining the so-called “monolayer”, the cells were washed with PBS without Ca^2+ and Mg^2+ ions (IITD PAN, Wroclaw), and poured with 700 µl of fresh DMEM medium with 10% FBS, together with 300 μl of properly prepared totarol. • Negative control: 1000 μl of fresh DMEM medium with 10% FBS. • Solvent control: 700 μl of fresh DMEM medium with 10% FBS+300 μl of DMI solvent. • Necrosis positive control: 900 μl of fresh DMEM medium with 10% FBS+100 μl H2O2 (30%). The proper examination using the Annexin-V-Fluos test causes green staining of apoptotic cells. […] This dye has an ability to penetrate the cell's interior freely only through a damaged cellular membrane, staining the interior red. In the case of a lack of damages of the cellular membrane, propidium iodide remains on its surface, forming a characteristic red “halo” around the cell. After a corresponding study time, i.e. 2, 8, and 24 hours, the culture fluid was removed, the content was washed with PBS (pre-heated to a temperature of 37° C.) twice. Then, 100 μl of the fluorescent stains mixture including in the Annexin-V-Fluos (Roche) kit were applied on the surface of each microscope slide (placed in a culture well) and additionally, Hoechst stain was used (cellular DNA staining). The staining procedure was carried out according to the manufacturer's recommendations. The culture together with the stains applied onto it were incubated at room temperature for 20 min. The intensity of light emitted by the cells stained with the individual stains was observed using a fluorescent microscope at the wavelength of 494-520 nm, using 400× magnification. The cells were counted in five visual fields, and the results were averaged. The reliability of the tests carried out is confirmed by hydrogen peroxide used as a positive control, causing a distinct necrosis process already after 2 hours of incubation. Data analyses were carried out on the basis of the average number of cells from five visual fields in the individual times (2, 8, and 24 h). The results are presented in Table 6 and in the form of photographic documentation—FIGS. 1, 2, 3, 4.

Gardnerella vaginalis = settings: cited from earlier work

Alive cells [1]	SMILES	Apopt. cells [1]	Necrot. Cells [1]	Necrot. cells [1]	apoptosis and necrosis in epithelial cells, photographic documentation [1]	metronidazole-resistant strain percentage (Gardnerella vaginalis; Goldstein et al., 1993)	percentage of resistant strains (Gardnerella vaginalis; Goldstein et al., 2002)	studied strains characterised by resistance to metronidazole (Gardnerella vaginalis; Poland, 67 strains isolated from 604 females (46 out of 67))	resistance of Gardnerella vaginalis strains to metronidazole (Gardnerella vaginalis; studies published in 2007)
0	OO [Necrosis positive control, reference compound]	0	100	100	Necrotic cells	–	–	–	–
–	Cc1ncc([N+](=O)[O-])n1CCO [metronidazole]	–	–	–	–	20%	29%	68.7%	70%
